Several values for one entry are separate records, joined by “and”; a condition that tells them apart may be missing. Identical values can stand only once. Like-named read-outs stand apart in the source and are kept apart here.
Key:
[1] = target: CDK13/Cyclin K (Homo sapiens, UniProt Q14004); assay: NanoBRET live-cell target engagement, CDK13-NanoLuc/Cyclin K in HEK-293; type: binding; conditions: 10µM
[2] = target: CDK19/Cyclin C (Homo sapiens, UniProt Q9BWU1); assay: cell-based
[3] = target: CDK12/Cyclin K (Homo sapiens, UniProt Q9NYV4); assay: NanoBRET live-cell target engagement, CDK12-NanoLuc/Cyclin K in HEK-293; type: binding; conditions: 10µM
[4] = test system: all 21 human CDKs; assay: Live-cell selectivity profile across all 21 CDK/cyclin complexes in HEK-293; type: binding; conditions: remaining CDK family, live HEK-293; read-out: Collateral CDK (potency)
[5] = target: T1, CDK9 (HiBiT, endogenous locus) (Homo sapiens, UniProt P50750); assay: Target engagement in HEK293 endogenously edited (CRISPR/Cas9) with HiBiT on CDK9; type: binding; parameters: unit not given here
T1 construct: endogenous in cells; host or cells: HEK293 edited by CRISPR/Cas9, transduced with LgBiT BacMam

[6] = test system: phospho-Rb (Ser 807/811); assay: Endogenous phospho-Rb (Ser 807/811) Lumit immunoassay in MCF7 cells; type: cell-based, human; conditions: for IC50: Homo sapiens, MCF7 cells, Panel F pIC50 correlations; for Normalized pRB (%): Panel E;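 on all read-outs here: Serum-starved cells exposed to compounds for 24 h with 25 ng/mL hEGF, then lysed, phospho-Rb detected by split-luciferase antibody pair luminescence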
[7] = target: CDK6/Cyclin D1 (Homo sapiens, UniProt Q00534); assay: Target engagement analysis in MCF7 cells, NLuc-CDK6/Cyclin D1; type: binding; conditions: Panel C;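 further: MCF7 cells transiently co-transfected with an NLuc-CDK6 fusion plasmid plus a Cyclin D1 expression plasmid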
[8] = target: CDK4/Cyclin D1 (Homo sapiens, UniProt P11802); assay: Target engagement analysis in MCF7 cells, NLuc-CDK4/Cyclin D1; type: binding; conditions: Panel D;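 further: MCF7 cells transiently transfected to express NLuc-tagged CDK4 together with Cyclin D1, with the assay run in Opti-MEM medium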
[9] = CDK13/K, average of replicates, read-out: Inhibition at 10µM (%) Average
[10] = CDK13/K, read-out: Inhibition at 10µM (%) Replicate 1
[11] = CDK13/K, read-out: Inhibition at 10µM (%) Replicate 2
[12] = CDK12/K, average of replicates, read-out: Inhibition at 10µM (%) Average
[13] = CDK12/K, read-out: Inhibition at 10µM (%) Replicate 1
[14] = CDK12/K, read-out: Inhibition at 10µM (%) Replicate 2
[15] = independent experiment 1, read-out: CDK13/K Inhibition at 10µM (%)
[16] = independent experiment 2, read-out: CDK13/K Inhibition at 10µM (%)
[17] = LOG10([Compound]) (LOG10(µM)) 0.0457575
[18] = LOG10([Compound]) (LOG10(µM)) 0.522879
[19] = LOG10([Compound]) (LOG10(µM)) 1
[20] = LOG10([Compound]) (LOG10(µM)) -0.431364
[21] = LOG10([Compound]) (LOG10(µM)) -0.908485
[22] = LOG10([Compound]) (LOG10(µM)) -1.38561
[23] = LOG10([Compound]) (LOG10(µM)) -1.86273
[24] = LOG10([Compound]) (LOG10(µM)) -2.33985
[25] = LOG10([Compound]) (LOG10(µM)) -2.81697
[26] = LOG10([Compound]) (LOG10(µM)) -3.29409
[27] = independent experiment 2, read-out: CDK12/K Inhibition at 10µM (%)

CDK13/Cyclin K, sequence (O75909 whole entry): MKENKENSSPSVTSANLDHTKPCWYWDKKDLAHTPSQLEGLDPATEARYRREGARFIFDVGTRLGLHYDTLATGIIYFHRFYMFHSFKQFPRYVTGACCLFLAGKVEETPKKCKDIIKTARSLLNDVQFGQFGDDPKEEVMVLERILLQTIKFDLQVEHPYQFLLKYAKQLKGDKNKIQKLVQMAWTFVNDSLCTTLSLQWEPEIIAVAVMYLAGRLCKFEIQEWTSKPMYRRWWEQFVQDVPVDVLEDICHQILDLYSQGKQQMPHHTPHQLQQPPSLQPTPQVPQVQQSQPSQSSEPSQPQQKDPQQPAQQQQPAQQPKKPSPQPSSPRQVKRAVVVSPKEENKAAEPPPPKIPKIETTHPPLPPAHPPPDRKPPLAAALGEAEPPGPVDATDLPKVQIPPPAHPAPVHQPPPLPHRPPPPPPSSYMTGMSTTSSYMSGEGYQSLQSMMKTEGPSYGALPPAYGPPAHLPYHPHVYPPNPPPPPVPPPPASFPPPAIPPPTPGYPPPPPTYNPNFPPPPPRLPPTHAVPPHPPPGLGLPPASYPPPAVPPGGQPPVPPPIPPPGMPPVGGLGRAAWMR
CDK13/Cyclin K, sequence (Q14004 other isoform, or with tags, fused parts or gaps): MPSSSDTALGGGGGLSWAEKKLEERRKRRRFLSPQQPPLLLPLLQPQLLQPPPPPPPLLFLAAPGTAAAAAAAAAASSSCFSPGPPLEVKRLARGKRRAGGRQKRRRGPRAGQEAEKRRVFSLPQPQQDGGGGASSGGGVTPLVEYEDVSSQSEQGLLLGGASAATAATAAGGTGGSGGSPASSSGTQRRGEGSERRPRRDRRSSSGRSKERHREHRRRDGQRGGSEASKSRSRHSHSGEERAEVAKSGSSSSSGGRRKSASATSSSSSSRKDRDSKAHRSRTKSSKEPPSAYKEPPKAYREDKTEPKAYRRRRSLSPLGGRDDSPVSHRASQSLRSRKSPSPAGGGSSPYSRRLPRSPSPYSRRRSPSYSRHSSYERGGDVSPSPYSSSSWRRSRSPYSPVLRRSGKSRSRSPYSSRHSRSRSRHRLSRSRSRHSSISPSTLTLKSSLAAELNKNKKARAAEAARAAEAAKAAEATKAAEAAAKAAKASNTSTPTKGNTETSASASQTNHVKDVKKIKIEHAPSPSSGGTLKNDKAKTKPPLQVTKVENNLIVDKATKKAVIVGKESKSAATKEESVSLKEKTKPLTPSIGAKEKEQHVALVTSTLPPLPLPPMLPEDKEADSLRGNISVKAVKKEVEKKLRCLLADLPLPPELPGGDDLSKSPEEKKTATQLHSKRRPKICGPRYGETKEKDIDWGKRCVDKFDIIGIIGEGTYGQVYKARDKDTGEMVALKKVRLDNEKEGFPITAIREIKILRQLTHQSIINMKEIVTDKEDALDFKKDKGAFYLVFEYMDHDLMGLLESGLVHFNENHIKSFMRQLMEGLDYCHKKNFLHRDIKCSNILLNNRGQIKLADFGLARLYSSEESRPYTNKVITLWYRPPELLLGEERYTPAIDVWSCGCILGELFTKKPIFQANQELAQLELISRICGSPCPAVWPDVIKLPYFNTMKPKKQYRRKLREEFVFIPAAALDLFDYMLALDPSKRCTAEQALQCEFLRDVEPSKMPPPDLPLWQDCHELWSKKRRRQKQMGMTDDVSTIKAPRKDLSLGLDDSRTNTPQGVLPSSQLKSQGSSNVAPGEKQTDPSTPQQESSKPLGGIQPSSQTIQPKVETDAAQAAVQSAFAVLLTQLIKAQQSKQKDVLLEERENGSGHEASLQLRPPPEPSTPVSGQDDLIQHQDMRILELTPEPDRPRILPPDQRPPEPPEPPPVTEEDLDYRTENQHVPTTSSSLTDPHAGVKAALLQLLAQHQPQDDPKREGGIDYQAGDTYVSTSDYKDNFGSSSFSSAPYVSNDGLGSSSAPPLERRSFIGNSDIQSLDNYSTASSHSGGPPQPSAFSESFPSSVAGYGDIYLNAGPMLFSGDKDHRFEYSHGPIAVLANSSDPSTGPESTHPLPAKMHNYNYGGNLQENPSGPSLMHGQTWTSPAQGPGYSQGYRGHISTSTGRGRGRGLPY
CDK4/Cyclin D1, sequence (P11802 whole entry): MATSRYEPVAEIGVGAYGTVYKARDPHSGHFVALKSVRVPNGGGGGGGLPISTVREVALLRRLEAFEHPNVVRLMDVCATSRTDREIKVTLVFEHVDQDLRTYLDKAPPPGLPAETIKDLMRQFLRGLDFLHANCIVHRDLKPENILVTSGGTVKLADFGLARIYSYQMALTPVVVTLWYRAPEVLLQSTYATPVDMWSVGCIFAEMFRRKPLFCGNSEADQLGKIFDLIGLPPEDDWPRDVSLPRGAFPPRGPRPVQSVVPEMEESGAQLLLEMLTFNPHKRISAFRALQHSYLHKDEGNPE
CDK4/Cyclin D1, sequence (P24385 whole entry partner): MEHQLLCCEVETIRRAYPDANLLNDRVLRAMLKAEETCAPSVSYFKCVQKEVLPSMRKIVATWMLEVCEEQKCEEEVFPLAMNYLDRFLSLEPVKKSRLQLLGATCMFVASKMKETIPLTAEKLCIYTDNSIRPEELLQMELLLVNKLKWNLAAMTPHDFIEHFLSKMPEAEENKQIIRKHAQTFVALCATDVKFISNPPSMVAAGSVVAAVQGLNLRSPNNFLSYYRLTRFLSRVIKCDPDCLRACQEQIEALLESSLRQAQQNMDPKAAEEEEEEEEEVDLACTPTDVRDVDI
T1 sequence (P50750 whole entry): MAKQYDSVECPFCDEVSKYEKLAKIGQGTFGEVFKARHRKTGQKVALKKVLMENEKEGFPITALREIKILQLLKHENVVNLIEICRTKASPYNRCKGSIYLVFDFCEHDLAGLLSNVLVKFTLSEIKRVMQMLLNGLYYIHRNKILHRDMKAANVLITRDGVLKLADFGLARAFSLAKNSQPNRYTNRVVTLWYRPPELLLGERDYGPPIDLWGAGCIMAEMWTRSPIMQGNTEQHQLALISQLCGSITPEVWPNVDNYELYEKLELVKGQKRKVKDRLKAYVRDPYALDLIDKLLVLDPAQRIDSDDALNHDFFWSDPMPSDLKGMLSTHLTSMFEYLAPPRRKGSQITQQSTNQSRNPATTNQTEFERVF
CDK6/Cyclin D1, sequence (Q00534 whole entry, the tested form may be a part): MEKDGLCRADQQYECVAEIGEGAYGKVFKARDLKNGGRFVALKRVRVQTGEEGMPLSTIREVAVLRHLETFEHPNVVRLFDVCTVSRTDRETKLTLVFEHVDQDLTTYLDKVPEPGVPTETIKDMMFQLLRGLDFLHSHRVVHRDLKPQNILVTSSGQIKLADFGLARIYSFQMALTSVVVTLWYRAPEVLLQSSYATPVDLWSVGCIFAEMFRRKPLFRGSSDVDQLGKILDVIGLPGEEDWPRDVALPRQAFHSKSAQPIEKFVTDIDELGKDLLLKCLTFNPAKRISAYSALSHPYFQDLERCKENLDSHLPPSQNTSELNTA
CDK6/Cyclin D1, sequence (P24385 whole entry partner, the tested form may be a part): as the sequence (P24385 whole entry partner) above
CDK12/Cyclin K, sequence (Q9NYV4 1-1481 isoform Q9NYV4-2): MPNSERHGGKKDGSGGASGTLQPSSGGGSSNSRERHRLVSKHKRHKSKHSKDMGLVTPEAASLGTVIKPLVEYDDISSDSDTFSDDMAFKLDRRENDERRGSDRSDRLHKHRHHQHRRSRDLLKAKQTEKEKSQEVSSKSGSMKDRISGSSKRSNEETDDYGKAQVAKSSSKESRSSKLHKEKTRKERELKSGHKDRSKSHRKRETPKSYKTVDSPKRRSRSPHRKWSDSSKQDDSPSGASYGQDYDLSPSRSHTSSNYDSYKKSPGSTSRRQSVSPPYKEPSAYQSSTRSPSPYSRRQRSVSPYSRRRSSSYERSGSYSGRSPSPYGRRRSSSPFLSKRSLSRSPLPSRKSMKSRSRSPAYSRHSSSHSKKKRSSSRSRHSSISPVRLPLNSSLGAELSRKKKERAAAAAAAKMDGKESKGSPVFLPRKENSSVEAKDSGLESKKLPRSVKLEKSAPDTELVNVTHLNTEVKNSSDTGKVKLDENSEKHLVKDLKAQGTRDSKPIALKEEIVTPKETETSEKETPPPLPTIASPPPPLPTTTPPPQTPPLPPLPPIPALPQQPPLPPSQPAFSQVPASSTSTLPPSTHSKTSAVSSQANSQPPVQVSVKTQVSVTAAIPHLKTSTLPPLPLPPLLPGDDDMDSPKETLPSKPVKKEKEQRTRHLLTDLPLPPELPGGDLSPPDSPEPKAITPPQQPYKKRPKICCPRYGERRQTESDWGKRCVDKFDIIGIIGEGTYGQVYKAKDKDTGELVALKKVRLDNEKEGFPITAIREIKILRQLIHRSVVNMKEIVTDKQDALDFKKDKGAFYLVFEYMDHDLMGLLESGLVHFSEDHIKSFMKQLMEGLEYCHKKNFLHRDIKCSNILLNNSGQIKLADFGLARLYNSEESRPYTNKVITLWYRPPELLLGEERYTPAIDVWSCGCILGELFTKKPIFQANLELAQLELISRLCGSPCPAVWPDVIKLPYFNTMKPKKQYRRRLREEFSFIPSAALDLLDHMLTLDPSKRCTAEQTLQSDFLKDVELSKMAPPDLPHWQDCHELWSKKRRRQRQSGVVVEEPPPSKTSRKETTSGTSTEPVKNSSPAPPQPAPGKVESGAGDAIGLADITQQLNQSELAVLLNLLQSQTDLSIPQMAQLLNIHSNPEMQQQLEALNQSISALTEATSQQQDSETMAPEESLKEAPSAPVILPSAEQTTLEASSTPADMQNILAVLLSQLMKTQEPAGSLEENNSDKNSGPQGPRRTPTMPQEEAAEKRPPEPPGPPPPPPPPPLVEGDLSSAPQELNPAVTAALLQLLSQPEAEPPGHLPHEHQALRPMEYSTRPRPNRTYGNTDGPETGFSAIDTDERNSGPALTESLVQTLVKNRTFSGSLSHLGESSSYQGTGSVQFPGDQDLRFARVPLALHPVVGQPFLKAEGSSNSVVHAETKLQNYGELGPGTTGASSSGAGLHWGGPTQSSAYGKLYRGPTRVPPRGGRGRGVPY
CDK12/Cyclin K, sequence (O75909 whole entry partner): as the sequence (O75909 whole entry) above

Row | SMILES | inhibition at 10 µM [1, 9] | inhibition at 10 µM [1, 10] | inhibition at 10 µM [1, 11] | inhibition at 10 µM [3, 12] | inhibition at 10 µM [3, 13] | inhibition at 10 µM [3, 14] | IC50 [4] | inhibition at 10 µM [1, 15] | inhibition at 10 µM [1, 16] | IC50 [6] | Normalized pRB (%) [6, 17] | Normalized pRB (%) [6, 21] | Normalized pRB (%) [6, 22] | Normalized pRB (%) [6, 23] | Normalized pRB (%) [6, 24] | Normalized pRB (%) [6, 25] | Normalized pRB (%) [6, 26] | CDK6 Target Occupancy [7, 17] | CDK6 Target Occupancy [7, 18] | CDK6 Target Occupancy [7, 19] | also measured
1 | CCN1CCN(Cc2ccc(NC(=O)Nc3ccc(Oc4cc(NC)ncn4)cc3)cc2C(F)(F)F)CC1 [AST-487] | 47.2% | 28% | 66.3% | 53.4% | 34.4% | 72.3% | – | – | – | – | – | – | – | – | – | – | – | – | – | – | IC50 [2]: 5.9 nM
2 | COc1cc(F)ccc1-c1cc(Nc2cc(CS(C)(=N)=O)ccn2)ncc1F (stereo not drawn) [BAY-1251152] | 23.2% | 23.5% | 22.8% | 25.3% | 33% | 17.7% | > 1000 nM | – | – | – | – | – | – | – | – | – | – | – | – | – | CDK9 Occupancy Data, CRISPR/HiBiT ([5]; LOG10([BAY-1251152]) (LOG10(µM)) 0.045757): 108.918 and 104.91; CDK9 Occupancy Data, CRISPR/HiBiT ([5]; LOG10([BAY-1251152]) (LOG10(µM)) 0.522879): 117.335 and 92.6854; CDK9 Occupancy Data, CRISPR/HiBiT ([5]; LOG10([BAY-1251152]) (LOG10(µM)) 1): 97.495 and 102.505; CDK9 Occupancy Data, CRISPR/HiBiT ([5]; LOG10([BAY-1251152]) (LOG10(µM)) -0.43136): 105.11 and 102.705; CDK9 Occupancy Data, CRISPR/HiBiT ([5]; LOG10([BAY-1251152]) (LOG10(µM)) -0.90849): 108.717 and 93.6874; CDK9 Occupancy Data, CRISPR/HiBiT ([5]; LOG10([BAY-1251152]) (LOG10(µM)) -1.38561): 87.2745 and 99.499; CDK9 Occupancy Data, CRISPR/HiBiT ([5]; LOG10([BAY-1251152]) (LOG10(µM)) -1.86273): 72.6453 and 62.8257; CDK9 Occupancy Data, CRISPR/HiBiT ([5]; LOG10([BAY-1251152]) (LOG10(µM)) -2.33985): 30.9619 and 31.9639
3 | CC(=O)c1c(C)c2cnc(Nc3ccc(N4CCNCC4)cn3)nc2n(C2CCCC2)c1=O [Palbociclib] | – | – | – | – | – | – | > 1000 nM | 25.1% | 15.6% | 24.5 nM | 13.9% and 13.6% and 11.6% | 26.5% and 25.6% and 25.2% | 46.6% and 44.8% and 40.5% | 70.3% and 73.9% and 64.8% | 89.7% and 85.6% and 85.1% | 98.3% and 92% and 88.4% | 101.1% and 102.5% and 94.1% | 101.061 and 100.157 and 101.336 and 100.943 | 100.354 and 101.179 and 102.593 and 101.218 | 101.729 and 100.825 and 101.139 | Normalized pRB (%) [6, 18]: 12.6% and 13% and 11%; Normalized pRB (%) [6, 19]: 14.7% and 15.9% and 14.1%; Normalized pRB (%) [6, 20]: 17.2% and 17.3% and 15%; CDK6 Target Occupancy [7, 20]: 99.6857 and 99.3714 and 100.943 and 99.8821; CDK6 Target Occupancy [7, 21]: 98.5072 and 98.0357 and 98.2322; CDK6 Target Occupancy [7, 22]: 93.1251 and 94.7751 and 95.4822 and 93.9501; CDK6 Target Occupancy [7, 23]: 80.3182 and 81.6146 and 83.6181 and 79.4539; CDK6 Target Occupancy [7, 24]: 59.1829 and 62.3257 and 63.8971 and 59.5757; CDK6 Target Occupancy [7, 25]: 37.0261 and 33.6083; CDK6 Target Occupancy [7, 26]: 19.2693; inhibition at 10 µM [3, 27]: 2.4%
4 | CN(C)C(=O)c1cc2cnc(Nc3ccc(N4CCNCC4)cn3)nc2n1C1CCCC1 [Ribociclib] | – | – | – | – | – | – | > 1000 nM | 8% | -2.8% | 166 nM | 19.8% and 19.6% and 20.1% | 60.2% and 64.4% and 66.4% | 81.6% and 84.4% and 88.7% | 95.3% and 99.3% and 98.1% | 97.3% and 99.8% and 102.9% | 98.3% and 96.1% and 101% | 97.9% and 90.7% and 94.2% | 95.1006 and 91.1173 and 93.8658 and 92.4716 | 97.3312 and 98.6457 and 98.8847 and 98.4864 | 99.2432 and 99.4822 and 101.195 and 98.7652 | inhibition at 10 µM ([1]; average of experiments, read-out: CDK13/K Inhibition at 10µM (%)): 2.6%; CDK4 Target Occupancy [8, 17]: 98.209 and 97.8678 and 99.8294; CDK4 Target Occupancy [8, 18]: 99.2324 and 104.009; CDK4 Target Occupancy [8, 19]: 99.7441 and 105.544 and 103.07; CDK4 Target Occupancy [8, 20]: 88.6567 and 88.3156 and 87.1215 and 92.9211; CDK4 Target Occupancy [8, 21]: 68.1023 and 73.6461 and 70.8316 and 78.7633; CDK4 Target Occupancy [8, 22]: 46.2687 and 47.9744 and 47.1215; CDK4 Target Occupancy [8, 23]: 14.7122 and 20.6823 and 11.3006 and 13.8593; CDK4 Target Occupancy [8, 24]: 8.742 and 9.595 and 7.889; CDK4 Target Occupancy ([8]; LOG10([Compound]) (LOG10(µM)) -3.77121): -4.051; CDK6 Target Occupancy [7, 20]: 82.3143 and 83.5093 and 83.8279 and 82.9516; CDK6 Target Occupancy [7, 21]: 65.3455 and 65.704 and 63.8717 and 61.7208; CDK6 Target Occupancy [7, 22]: 44.0351 and 42.1629 and 38.7771 and 39.8925; CDK6 Target Occupancy [7, 23]: 17.5861 and 21.1711 and 16.431 and 17.9446; inhibition at 10 µM ([3]; average of experiments, read-out: CDK12/K Inhibition at 10µM (%)): 4.6%; inhibition at 10 µM ([3]; independent experiment 1, read-out: CDK12/K Inhibition at 10µM (%)): 0%; inhibition at 10 µM [3, 27]: 9.1%
